Test systems include A549 NSCLC; TK-10 renal; OVCAR-4 ovarian; NCI-H23 lung; ACHN renal; NCI-H460 lung; HCT-15 colon; SF-539 CNS; UACC-257 melanoma; RPMI-8226 leukemia.
Holding throughout (assay): NCI-60 cell line screen, 48 h

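48-hour exposure; five concentrations; linearly interpolated endpoints. GI50 marks 50% less growth. TGI marks complete inhibition of growth.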

In the case of `COc1ccc(-c2nn(-c3ccc(NC(=O)Nc4ccc(Cl)c(Cl)c4)cc3)cc2-c2ccncc2)cc1Cl`, the GI50 is 1560 nM with A549 NSCLC; 2040 nM with TK-10 renal; 1790 nM in the experiment on OVCAR-4 ovarian; 2220 nM in the experiment on NCI-H23 lung; 2270 nM in the experiment on ACHN renal; 2140 nM in the experiment on NCI-H460 lung. In addition, the GI50 was 1700 nM with HCT-15 colon, 2820 nM in the experiment on SF-539 CNS, 3140 nM in the experiment with UACC-257 melanoma and 540 nM in the experiment on RPMI-8226 leukemia. For the same compound, the TGI was more than 100 µM in the experiment on A549 NSCLC; more than 100 µM in the experiment with TK-10 renal; more than 100 µM in the experiment with OVCAR-4 ovarian; more than 100 µM in the experiment on NCI-H23 lung; more than 100 µM with ACHN renal; 8.54 µM in the experiment on NCI-H460 lung. For the same compound, the TGI in the experiment on HCT-15 colon is more than 100 µM; in the experiment on SF-539 CNS, more than 100 µM; with UACC-257 melanoma, 11.6 µM; with RPMI-8226 leukemia, 3.18 µM.
On to `Nc1cc(S(=O)(=O)O)cc2cc(S(=O)(=O)O)c(N=Nc3ccc(-c4ccc(N=Nc5c(S(=O)(=O)O)cc6cc(S(=O)(=O)O)cc(N)c6c5O)cc4)cc3)c(O)c12`, for which the TGI with A549 NSCLC, in the experiment with OVCAR-4 ovarian, with NCI-H23 lung, in the experiment with NCI-H460 lung, with HCT-15 colon and with SF-539 CNS was more than 100 µM each time. Moreover, the TGI in the experiment with UACC-257 melanoma and in the experiment with RPMI-8226 leukemia was more than 100 µM in each case.
Regarding `C/C1=N\NC(=O)c2ccccc2C(=O)N/N=C(\C)c2cccc1n2.O=[N+]([O-])[O-].[Zn+2]`, the TGI in the experiment on A549 NSCLC, with TK-10 renal, in the experiment on OVCAR-4 ovarian, in the experiment on NCI-H23 lung, with ACHN renal and with NCI-H460 lung was more than 100 µM in each case. For the same compound, the TGI in the experiment on HCT-15 colon, in the experiment on SF-539 CNS, in the experiment on UACC-257 melanoma and with RPMI-8226 leukemia was more than 100 µM each time.
For `O=Nc1ccc(O)c2ncccc12`, the TGI came out at 30.4 µM with A549 NSCLC; 28.2 µM in the experiment on TK-10 renal; 24.1 µM in the experiment with OVCAR-4 ovarian; 3.04 µM with NCI-H23 lung; 14.5 µM in the experiment with ACHN renal; 12.8 µM with NCI-H460 lung. The TGI in the experiment on HCT-15 colon was found to be 12.9 µM; with SF-539 CNS, 4.96 µM; in the experiment with UACC-257 melanoma, 19.4 µM; in the experiment on RPMI-8226 leukemia, 99.8 µM.
With `O=C(O)CC(C(=O)O)C1c2ccccc2-c2ccccc21` (stereo not drawn), the TGI in the experiment with A549 NSCLC, in the experiment with TK-10 renal, in the experiment on OVCAR-4 ovarian, with NCI-H23 lung, in the experiment on ACHN renal and in the experiment with NCI-H460 lung was more than 100 µM throughout. The TGI in the experiment with HCT-15 colon, in the experiment on UACC-257 melanoma and with RPMI-8226 leukemia was more than 100 µM in each case.
Take `CC(C)=CCc1c(O)ccc2c1OC1c3ccc(O)c(CC=C(C)C)c3OCC21` (stereo not drawn): the TGI in the experiment with A549 NSCLC was 26.5 µM; in the experiment on OVCAR-4 ovarian it was 23.6 µM; with NCI-H23 lung, more than 55.1 µM; with NCI-H460 lung, 16.1 µM; in the experiment on HCT-15 colon, 18.1 µM; in the experiment on SF-539 CNS it was 23.9 µM. Also, the TGI in the experiment on UACC-257 melanoma came out at 29 µM; with RPMI-8226 leukemia, 17.1 µM.
As to `O=[N+]([O-])c1ccc(/C=N\Nc2ccc([N+](=O)[O-])cn2)cc1`, the TGI with A549 NSCLC, in the experiment on TK-10 renal, with OVCAR-4 ovarian, in the experiment on NCI-H23 lung, in the experiment with ACHN renal and in the experiment on NCI-H460 lung was more than 100 µM in each case. In addition, the TGI was more than 100 µM with HCT-15 colon, 82.8 µM with SF-539 CNS, more than 100 µM with UACC-257 melanoma and more than 100 µM in the experiment with RPMI-8226 leukemia.
As to `c1ccc(-n2cnnc2-c2nsc3ccccc23)cc1`, the TGI in the experiment on A549 NSCLC, in the experiment on TK-10 renal, in the experiment with OVCAR-4 ovarian, in the experiment with NCI-H23 lung, in the experiment on ACHN renal and in the experiment on NCI-H460 lung was more than 100 µM throughout. The TGI with HCT-15 colon, with SF-539 CNS, in the experiment with UACC-257 melanoma and in the experiment on RPMI-8226 leukemia was more than 100 µM each time.
As to `COc1cc(C(C)(C)C)cc(OC)c1C(O)(c1c(OC)cc(C(C)(C)C)cc1OC)c1c(OC)cc(C(C)(C)C)cc1OC`, the GI50 with A549 NSCLC is 324 nM; in the experiment with OVCAR-4 ovarian it was 307 nM; with ACHN renal it was 284 nM; with NCI-H460 lung, 288 nM; in the experiment with SF-539 CNS, 342 nM; in the experiment with UACC-257 melanoma, 268 nM. In addition, in the experiment with RPMI-8226 leukemia, the GI50 was 233 nM. For the same compound, the TGI in the experiment with A549 NSCLC turned out to be 1.23 µM; with OVCAR-4 ovarian it was 1.06 µM; in the experiment with ACHN renal, 0.987 µM; with NCI-H460 lung it was 0.853 µM; with SF-539 CNS it was 1.22 µM; in the experiment with UACC-257 melanoma it was 0.702 µM. In the experiment with RPMI-8226 leukemia, this compound displayed a TGI of 0.725 µM.
For the compound `CN1CCC(C(=O)NNc2ccccc2)CC1`, the TGI with A549 NSCLC was more than 86.8 µM; with TK-10 renal, more than 89.2 µM; with OVCAR-4 ovarian it was more than 100 µM; with NCI-H23 lung, more than 100 µM; in the experiment on ACHN renal it was more than 68.9 µM; in the experiment on NCI-H460 lung, more than 100 µM. Moreover, the TGI is more than 51.1 µM with HCT-15 colon, 32.6 µM in the experiment with SF-539 CNS, more than 89.2 µM with UACC-257 melanoma and more than 100 µM with RPMI-8226 leukemia.
As to `COc1ccc2[nH]c3c([N+](=O)[O-])ccc(Cl)c3c(=O)c2c1`, the TGI in the experiment on A549 NSCLC is more than 100 µM; with TK-10 renal, more than 56.6 µM; in the experiment on OVCAR-4 ovarian, 28.7 µM; in the experiment with NCI-H23 lung it was more than 52.8 µM; in the experiment with ACHN renal it was 29.3 µM; in the experiment with NCI-H460 lung it was more than 95.4 µM. Also, the TGI in the experiment with HCT-15 colon worked out at 40.8 µM; in the experiment on SF-539 CNS, 34.2 µM; in the experiment on UACC-257 melanoma, 16.5 µM; in the experiment with RPMI-8226 leukemia, 45.4 µM.
On to `N=C(N)c1ccc(-c2ccc(-c3cncc4ccccc34)s2)cc1F`, for which the GI50 was 1750 nM in the experiment with HCT-15 colon, 1600 nM with SF-539 CNS and 1640 nM with RPMI-8226 leukemia. Further, the values for the TGI in the experiment with HCT-15 colon, in the experiment on SF-539 CNS and with RPMI-8226 leukemia were 3.64 µM, 3.04 µM and 4.49 µM, respectively.
In the case of `C=C1C(=O)OC2/C=C(\C)C(=O)CC3OC(C)(C)OC3(C)CC(OC(=O)/C(C)=C/C)C12` (stereo not drawn), the TGI with A549 NSCLC was more than 100 µM; in the experiment with TK-10 renal, 27.9 µM; with OVCAR-4 ovarian, 41.5 µM; with NCI-H23 lung, 57.8 µM; in the experiment with ACHN renal, 16.6 µM; in the experiment with NCI-H460 lung, 46.2 µM. Moreover, the TGI was 19.8 µM in the experiment with HCT-15 colon, 49.4 µM in the experiment with SF-539 CNS, 31.5 µM in the experiment on UACC-257 melanoma and more than 100 µM in the experiment with RPMI-8226 leukemia.
Take `Cc1ccc(P(c2ccc(C)cc2)c2ccc(C)cc2)cc1`: the TGI in the experiment on A549 NSCLC is more than 100 µM; in the experiment on TK-10 renal, more than 100 µM; in the experiment on OVCAR-4 ovarian, 80.3 µM; in the experiment on NCI-H23 lung it was more than 100 µM; in the experiment with ACHN renal, more than 100 µM; with NCI-H460 lung it was 36.5 µM. In addition, the TGI was more than 100 µM in the experiment with HCT-15 colon, 37.7 µM in the experiment with SF-539 CNS, 59.3 µM in the experiment on UACC-257 melanoma and 34.6 µM with RPMI-8226 leukemia.
As for `OC(Cc1ccccc1)(Cc1ccccc1)c1ccccc1`, the TGI with A549 NSCLC turned out to be 46.3 µM; with TK-10 renal it was 42.6 µM; in the experiment on OVCAR-4 ovarian, 32.4 µM; in the experiment with NCI-H23 lung it was 38.4 µM; in the experiment on ACHN renal, 33.5 µM; in the experiment on NCI-H460 lung it was 44.4 µM. The TGI in the experiment on HCT-15 colon was 50.4 µM; in the experiment on UACC-257 melanoma, 36.7 µM; in the experiment with RPMI-8226 leukemia, more than 100 µM.
On to `C=C(C)C(=O)OC1C(C(C)CCCO)=C(CO)CC2OC(=O)C(=C)C21` (stereo not drawn), for which the TGI is 63.7 µM in the experiment on A549 NSCLC; more than 100 µM with TK-10 renal; more than 100 µM with OVCAR-4 ovarian; 43 µM in the experiment on NCI-H23 lung; 79.8 µM in the experiment with ACHN renal; 37.8 µM in the experiment with NCI-H460 lung. For the same compound, the TGI with HCT-15 colon is 26.9 µM; in the experiment with SF-539 CNS, 58.9 µM; in the experiment with UACC-257 melanoma, 39.1 µM; in the experiment with RPMI-8226 leukemia it was 91.9 µM.
`CC(C)(C)C1(c2ccc(C3(c4ccccc4)Oc4ccccc4S3)[nH]2)Oc2ccccc2S1` (stereo not drawn): the TGI in the experiment on A549 NSCLC, in the experiment on TK-10 renal, in the experiment with NCI-H23 lung, in the experiment on ACHN renal, in the experiment on NCI-H460 lung and in the experiment with HCT-15 colon was more than 100 µM throughout. Further, the TGI in the experiment with SF-539 CNS, in the experiment on UACC-257 melanoma and in the experiment on RPMI-8226 leukemia was more than 100 µM throughout.
As to `C=C1CC23CCC4C(C)(C(=O)O)CCCC4(C)C2CCC1C3` (stereo not drawn), the TGI in the experiment on A549 NSCLC is more than 100 µM; in the experiment with TK-10 renal, more than 100 µM; in the experiment with OVCAR-4 ovarian, more than 100 µM; with NCI-H23 lung, more than 100 µM; in the experiment on ACHN renal it was more than 100 µM; with NCI-H460 lung it was 59.1 µM. Moreover, the TGI in the experiment with HCT-15 colon is more than 100 µM; with SF-539 CNS, more than 100 µM; in the experiment on UACC-257 melanoma it was more than 100 µM; with RPMI-8226 leukemia it was 91.6 µM.

The values are drawn from PubChem BioAssay (NCI).
